In paper PMC9400670, “Establishing the selective phospholipid membrane coordination, permeation and lysis properties for a series of ‘druggable’ supramolecular self-associating antimicrobial amphiphiles” (Chemical Science, 2022):

Test system: human intestinal Caco-2 cells
Assay: Caco-2 permeability assay
Assay type: in vitro ADME
Method: Section 4: DMPK Methods and Further Discussion […]
Caco-2 Permeability studies: The permeability assay for SSA 1-6 and 10 was performed at Cyprotex Discovery Limited (Macclesfield, UK) and analysed at Cancer Research Horizons. SSA 1-6 and 10 were incubated at a final concentration of 10 uM with human intestinal Caco-2 cells at 37°C, 5% CO2 with a relative humidity of 95%. After 120 minutes the apical compartment inserts and the companion plates were separated, and the apical and basolateral samples were transferred. Incubations were conducted in duplicate and the fluorescent membrane integrity marker; Lucifer Yellow was co-incubated with the SSA compounds at the start of the assay. Compounds of known permeability were used as controls and were within acceptance criteria. Further processing is described in:
Sample preparation and liquid chromatography-mass spectrometry analysis.
Sample preparation and liquid chromatography-mass spectrometry analysis: All samples were centrifuged at 3500 rpm at 4°C for 10 min to precipitate protein and enable sampling of supernatant prior to appropriate dilution for liquid chromatography-mass spectrometry (LC-MS/MS analysis). […]
(1.5 µm, 50 x 2.1 mm) at a temperature of 40°C and a binary mobile phase gradient at a flow rate of […]
0.4 mL/min. […]
For the purpose of apparent permeability determination, samples were analysed using a Waters I-Class ultra-high-performance liquid chromatography (UHPLC) system coupled to a Waters Vion mass spectrometer (Waters, Elstree, UK). Separation of analytes was achieved used an Accucore Vanquish C18+ column (1.5 µm, 50 x 2.1 mm) at a temperature of 40°C and a binary mobile phase gradient at a flow rate of 0.4 mL/min. Initial LC conditions for SSA 1-4 comprised 66% solvent A (0.1% formic acid + 5 mM ammonium acetate in water), 33% solvent B (0.1% formic acid + 5 mM ammonium acetate in methanol); this was ramped to 63% B at 1.8 min and 95% B at 1.9 min, held for 0.5 min and then immediately returned to initial conditions and held for the remaining 0.5 min of the method. Initial LC conditions for SSA 5-10 comprised 54% solvent A (0.1% formic acid + 5 mM ammonium acetate in water), 46% solvent B (0.1% formic acid + 5 mM ammonium acetate in methanol); this was ramped to 67% B at 1.8 min and 95% B at 1.9 min, held for 0.5 min and then immediately returned to initial conditions and held for the remaining 0.5 min of the method.
Sample analysis was by electrospray ionisation in negative ion mode. The capillary voltage was 2.5 kV, desolvation gas was 600°C.
For the purpose of PK determination of SSA 5, samples were analysed using a Waters I-Class ultra-high-performance liquid chromatography (UHPLC) system coupled to a Waters Xevo TQ-XS mass spectrometer. Separation of analytes was achieved using an Accucore Vanquish C18+ column (1.5 µm, 50 x 2.1 mm) at a temperature of 40°C and a binary mobile phase gradient at a flow rate of 0.4 mL/min. Initial LC conditions comprised 54% solvent A (0.1% formic acid + 5 mM ammonium acetate in water), 46% solvent B (0.1% formic acid + 5 mM ammonium acetate in methanol); this was ramped to 67% B at 1.8 min and 95% B at 1.9 min, held for 0.5 min and then immediately returned to initial conditions and held for the remaining 0.5 min of the method. Sample analysis was by electrospray ionisation combined with multiple reaction monitoring in negative ion mode. The […]
Mean blood concentration-time profile: Within these studies SSAs 3 and 5 were dosed at 1 mg/kg, to female CD-1 mice (n=9 per SSA) via an intravenous tail vein bolus dose formulation as solutions in 2 % DMSO/98 % water. Blood taken from the mouse tail vein was extracted by protein precipitation.
SSA concentrations were calculated through UPLC-MS/MS techniques, with tolbutamide as the internal standard. The assay met the acceptance criteria with >7 calibration standards within ± 20% of nominal concentration. The lower limit of quantitation was 2 ng/mL for both compounds. PK […]

[1] = % SSA recovered from the assay after 2 hours

Recovery (A-B) [1]: 99% | Recovery (B-A) [1]: 98% | Papp (B-A) (Caco-2, 10 uM, 120 minutes, n = 2 technical repeats): 5.6 ×10⁻⁶ cm/s | Papp (B-A) class (Caco-2, in words): moderate
SMILES: O=C(NCS(=O)(=O)O)Nc1ccc(C(F)(F)F)cc1 [SSA 3]
